Consider three compounds from ChEMBL document CHEMBL1128146, “Tricarbonyl 6 arene chromium (0) based antitumor agents” (Bioorg Med Chem Lett, 1995).

SMILES strings stand for the structures.

In the assay the test system is HCT-116. Put plainly: Inhibitory activity against HCT116 tumor cell line. It counts as functional, cell-based. The settings on record: Homo sapiens.
Regarding `CS(=O)(=O)OCCCN(CCCOS(C)(=O)=O)c1ccccc1`, the IC50 (as a rule, the concentration that gives 50% inhibition) was found to be 99 nM.
For `CC(C)(C)[Si](C)(C)OCCN(CCO[Si](C)(C)C(C)(C)C)c1ccccc1` the value was 1900 nM; for `CS(=O)(=O)OCCN(CCOS(C)(=O)=O)c1ccccc1`, 25 nM.
